Source: ChEMBL document CHEMBL2073775, “Caco-2 permeability, P-glycoprotein transport ratios and brain penetration of heterocyclic drugs” (Int J Pharm, 2003)

Biological target: ATP-dependent translocase ABCB1 (Homo sapiens, UniProt P08183)
Experiment: TP_TRANSPORTER: transepithelial transport in Caco-2 cells
Format: functional, cell-based

Chain of ATP-dependent translocase ABCB1 (P08183 whole entry): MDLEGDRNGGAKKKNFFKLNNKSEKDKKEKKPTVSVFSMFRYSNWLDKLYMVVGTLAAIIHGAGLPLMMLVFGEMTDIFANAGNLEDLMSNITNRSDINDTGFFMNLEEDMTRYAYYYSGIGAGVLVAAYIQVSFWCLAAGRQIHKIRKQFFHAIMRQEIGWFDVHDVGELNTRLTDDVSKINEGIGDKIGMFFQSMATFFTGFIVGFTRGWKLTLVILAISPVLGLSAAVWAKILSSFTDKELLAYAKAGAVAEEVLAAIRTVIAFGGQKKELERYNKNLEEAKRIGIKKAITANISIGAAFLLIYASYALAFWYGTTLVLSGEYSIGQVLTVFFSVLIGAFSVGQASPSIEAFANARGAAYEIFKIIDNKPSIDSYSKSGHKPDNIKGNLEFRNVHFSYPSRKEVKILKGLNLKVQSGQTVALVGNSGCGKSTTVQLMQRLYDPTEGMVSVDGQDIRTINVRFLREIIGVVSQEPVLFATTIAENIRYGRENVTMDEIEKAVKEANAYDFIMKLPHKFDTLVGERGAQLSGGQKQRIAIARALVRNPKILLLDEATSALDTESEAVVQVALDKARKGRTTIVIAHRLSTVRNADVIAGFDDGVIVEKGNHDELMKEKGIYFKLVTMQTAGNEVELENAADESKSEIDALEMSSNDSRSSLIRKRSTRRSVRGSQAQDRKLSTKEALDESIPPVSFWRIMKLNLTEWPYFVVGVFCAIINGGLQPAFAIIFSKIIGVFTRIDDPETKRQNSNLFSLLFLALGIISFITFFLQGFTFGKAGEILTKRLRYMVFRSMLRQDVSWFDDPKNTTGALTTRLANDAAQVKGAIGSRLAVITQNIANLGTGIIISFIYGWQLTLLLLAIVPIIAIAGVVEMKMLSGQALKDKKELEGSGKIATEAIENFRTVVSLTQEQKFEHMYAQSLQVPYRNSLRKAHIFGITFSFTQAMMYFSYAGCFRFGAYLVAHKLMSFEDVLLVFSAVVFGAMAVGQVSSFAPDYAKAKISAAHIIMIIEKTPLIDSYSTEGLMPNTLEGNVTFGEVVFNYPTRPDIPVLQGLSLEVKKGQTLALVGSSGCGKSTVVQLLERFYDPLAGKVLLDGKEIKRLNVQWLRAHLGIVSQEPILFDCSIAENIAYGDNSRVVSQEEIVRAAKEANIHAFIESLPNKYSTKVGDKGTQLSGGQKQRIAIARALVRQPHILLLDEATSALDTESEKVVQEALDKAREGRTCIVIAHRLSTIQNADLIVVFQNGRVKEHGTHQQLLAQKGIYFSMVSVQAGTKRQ

Row | Molecule | Activity
1 | CN(C)CCC=C1c2ccccc2CCc2ccccc21 [AMITRIPTYLINE] | substrate [+]
2 | Cl.FC(F)(F)c1ccc(N2CCNCC2)nc1Cl | substrate [+]
3 | CC1(C)CC(=O)N(CCCCN2CCN(c3ncccn3)CC2)C(=O)C1O.Cl (configuration not stated) | substrate [+]
4 | Cc1cc(=O)n(-c2ccccc2)n1C [ANTIPYRINE] | is not a substrate [-]
5 | PEG 4000 | is not a substrate [-]
6 | O=C(O)/C=C/C(=O)O.O=C1CCCN1CCCCN1CCN(c2cc(C(F)(F)F)ccn2)CC1 | substrate [+]
7 | O=C(O)c1ccccc1O [SALICYLIC ACID] | is not a substrate [-]
8 | Cc1nc2n(c(=O)c1CCN1CCC(c3noc4cc(F)ccc34)CC1)CCCC2 [RISPERIDONE] | substrate [+]
9 | OC[C@@H](O)[C@@H](O)[C@H](O)[C@H](O)CO [MANNITOL] | is not a substrate [-]

Results, then the molecule that gave them:

Row | Activity | Molecule
10 | is not a substrate [-] | CC(C)Cc1ccc(C(C)C(=O)O)cc1 (configuration not stated) [IBUPROFEN]
11 | substrate [+] | CN1CCC(=C(c2ccc(F)cc2)c2cc(Cl)cs2)CC1
12 | substrate [+] | CN1CC2c3ccccc3Oc3ccc(Cl)cc3C2C1.O=C(O)/C=C\C(=O)O (racemic) [ASENAPINE MALEATE]
13 | substrate [+] | C=CCC(N)c1ccccc1-c1noc2ccccc12.Cl (single isomer, unassigned; (-))
14 | is not a substrate [-] | COc1ccc2c(c1)c(CC(=O)O)c(C)n2C(=O)c1ccc(Cl)cc1 [INDOMETHACIN]
15 | is not a substrate [-] | CC(=O)Nc1ccc(O)cc1 [ACETAMINOPHEN]
16 | is not a substrate [-] | CNC(=C[N+](=O)[O-])NCCSCc1ccc(CN(C)C)o1 [RANITIDINE]
17 | is not a substrate [-] | NC(=O)N1c2ccccc2C=Cc2ccccc21 [CARBAMAZEPINE]
18 | is not a substrate [-] | COc1cc2cc(C3=NNC(=O)CC3C)sc2cc1OC (configuration not stated)
19 | substrate [+] | Clc1cccc(Cl)c1N=C1NCCN1 [CLONIDINE]
20 | is not a substrate [-] | CC(=O)Oc1ccccc1C(=O)O [ASPIRIN]
21 | substrate [+] | CC1(C)CC(=O)N(CCCCN2CCN(c3ncccn3)CC2)C(=O)C1.Cl [GEPIRONE HYDROCHLORIDE]
22 | substrate [+] | CS(=O)(=O)O.O=C(CCCN1CCC(=C(c2ccc(F)cc2)c2ccc(F)cc2)CC1)N1CCCC1
